Measured values as given in paper PMC9292235, “Pharmacokinetics and Metabolism of Ziritaxestat (GLPG1690) in Healthy Male Volunteers Following Intravenous and Oral Administration” (Clinical Pharmacology in Drug Development, 2021).
Entries after “also recorded” stand apart in the source; their conditions may differ.

Experiments:
[1] = Metabolite profiling and identification in plasma, urine and feces; format: in vivo, human; conditions: for Mean Feces Region of Interest: components of one region share its value
Description: (§1) Whole blood and plasma samples for total radioactivity and plasma sample concentrations of ziritaxestat were collected before dosing and at 0, 0.25, 0.5, 1, 1.5, 2, 3, 4, 6, 8, 10, 24, 48, 72, 96, 120, 144, 168, 192, and 216 hours after dosing. Plasma samples for metabolite identification and quantification were collected before dosing and at 1, 3, 6, 24, 48, 72, 96, and 144 hours after dosing. Urine and fecal samples for total radioactivity, metabolite identification, and quantification were collected before dosing through to 216 hours after dosing. Structural identification was attempted on any radioactive component that represented ≥10% of the circulating radioactivity in plasma or that accounted for >10% of the dose in ≥1 fecal and urine samples.

[2] = tested on: CYP3A4; conditions: human recombinant CYP, background data in introduction, no reference given, cited from earlier work
[3] = Safety assessments (AEs, laboratory tests, vital signs, ECG); format: in vivo, human; conditions: parts 1 and 2
Description: Safety assessments included adverse events (AEs), clinical laboratory tests (clinical chemistry, hematology, urinalysis), vital signs, 12‐lead electrocardiograms (ECGs), and physical examinations. AEs were recorded from the first dose until study discharge, and at the follow‐up call. Any adverse experiences recorded between the time of informed consent and the first dose were recorded with the medical history. AEs and medications were coded using the Medical Dictionary for Regulatory Activities version 21.1.

[4] = Part 1 absolute bioavailability: plasma PK after oral 600 mg ziritaxestat and 15-minute IV infusion of 100 μg 14C-ziritaxestat microtracer; format: in vivo, human; conditions: for F AUCt (absolute bioavailability) / F AUC∞ (absolute bioavailability): oral 600 mg vs IV 100 μg 14C-ziritaxestat; for F AUCt (absolute bioavailability): dose-normalized AUCt; for F AUC∞ (absolute bioavailability): dose-normalized AUC∞
Source text: Part 1 of the study was designed to assess the absolute bioavailability of ziritaxestat. An IV microtracer, a well‐established technique, was used.[21], [22] This design involved a 15‐minute infusion of a subtherapeutic 100‐μg IV ziritaxestat dose labeled with a microtracer (≤1000 nCi) of ^14C radioactivity, dosed at an anticipated time to reach maximum plasma concentration (tmax) of a preceding unlabeled therapeutic (600‐mg) oral dose (administered as three 200‐mg film‐coated tablets). The low‐dose IV formulation means that nonclinical local tolerability and IV toxicology studies can generally be avoided,[21], [22] which can be preferable when developing a single, fit‐for‐purpose IV formulation. Administering the IV microdose at tmax of the unlabeled therapeutic (600‐mg) oral dose of ziritaxestat ensured that the PK of the microdose remained representative of the therapeutic dose.
Given the low (microgram) levels of ziritaxestat expected in plasma, liquid chromatography–accelerated mass spectrometry (LC‐AMS) was used to quantify levels of ^14C‐ziritaxestat, whereas accelerated mass spectrometry (AMS) was used to quantify total radioactivity following the IV dose, achieving a lower limit of quantification (LLOQ) of 0.110 ng eq/mL and 0.0069 ng eq/mL, respectively. Concentrations of unlabeled parent in plasma were measured using liquid chromatography with tandem mass spectrometry (LC‐MS/MS), with an LLOQ of 1.00 ng/mL.
Subjects were admitted to the clinic on day –1 (the evening before dosing) and remained onsite until 72 hours after dosing. On the morning of day 1, 30 minutes after the start of a standard breakfast, subjects received a single oral dose of 600‐mg ziritaxestat, followed 3.25 hours later by a 15‐minute IV infusion of 100 μg of ^14C‐ziritaxestat. Plasma samples for ziritaxestat concentrations were collected before dosing and at 0.25, 0.5, 1, 1.5, 2, 3, 3.25, 4, 5, 6, 8, 10, 12, 24, 48, and 72 hours after the oral dose. In addition, plasma samples for ^14C‐ziritaxestat, total radioactivity, and metabolite profiling were collected at 3.25, 3.33, 3.5, 3.75, 4, 4.25, 4.75, 5.25, 6, 7, 8, 10, 12, 24, 48, and 72 hours after the oral dose.
(§2) Concentrations of ziritaxestat in human lithium heparin plasma samples were determined for both study parts by using an LC‐MS/MS method validated according to the requirements of the US Food and Drug Administration's Guidance for Industry and the European Medicines Agency's guidance on bioanalytical methods. The method involved isolating ziritaxestat and ziritaxestat‐d8 (internal standard) from 20 μL of human lithium heparin plasma by solid‐phase extraction performed on a CUBCX1 100‐mg 1‐mL cartridge (Screening Devices, Amersfoort, Netherlands). The extract sample was then evaporated to dryness under a stream of nitrogen at +50°C. The residue was reconstituted with 0.3 mL of a mixture of 25% acetonitrile in purified water containing 0.01% of ammonium hydroxide. Ten microliters of the clear supernatant were injected into the high‐performance liquid chromatography system (Shimadzu, Kyoto, Japan), operating in isocratic elution mode. Chromatographic separation was performed on an XBridge C18 column (100 × 4.6 mm, 3.5 μm; Waters Corp., Milford, Massachusetts). The aqueous mobile phase consisted of a mixture of 46.75% acetonitrile in purified water containing 0.02% of ammonium hydroxide. An API 4000 LC‐MS/MS system (SCIEX, Toronto, Canada) equipped with a TurboIonSpray probe operating in multiple‐reaction monitoring mode in positive mode was used for quantification. The precursor‐to‐product ion pairs at the mass‐to‐charge ratio were 589 to 256 and 597 to 264 for ziritaxestat and its internal standard, respectively.
Total radioactivity plasma concentrations for part 1 were determined using AMS analysis on a 1‐MV multielement accelerated mass spectrometer, model 4110 Bo (High Voltage Engineering Europa, Amersfoort, the Netherlands). […]

[5] = tested on: CYP3A4/5; conditions: human liver microsomes and probe substrates; weak inhibition; background data in introduction, no reference given; read-out: half maximal inhibitory concentration; cited from earlier work
[6] = Estimation of oral bioavailability fractions (fa, fg, fh); format: in vivo, human
Source text: Contribution to clearance from nonhepatic routes was assumed to be minimal. fg was estimated assuming Fg=F/Fa/Fh .

[7] = tested on: CYP1A2; conditions: 0.1 to 30 μM incubated with human hepatocytes; background data in introduction, no reference given; cited from earlier work
[8] = tested on: CYP3A4; conditions: 0.1 to 30 μM incubated with human hepatocytes; background data in introduction, no reference given; cited from earlier work
[9] = Part 2: plasma and whole blood PK after a single oral 600-mg dose of 14C-ziritaxestat; format: in vivo, human; conditions: ziritaxestat in plasma, single oral 600 mg 14C-ziritaxestat
Source text: Part 2 of the study assessed the mass balance, routes of elimination, and metabolite profile of ziritaxestat following a single, oral 600‐mg dose (administered as two 300‐mg active pharmaceutical ingredients‐in‐capsule) of ^14C‐ziritaxestat.
Subjects were admitted on the evening before dosing (day –1 of part 2), allowing a minimum 7‐day washout in oral drug administration between parts 1 and 2. On the morning of day 1, subjects received a single oral dose of ^14C‐ziritaxestat, equivalent to 600 mg of ziritaxestat. […] Subjects stayed in the clinical study center no longer than day 10 (216 hours after dosing).
as §1
Total radioactivity was measured via liquid scintillation counting, achieving an LLOQ of 306 ng eq/mL (plasma), 216 ng eq/mL (whole blood), 17 ng eq/g (urine), and 161 ng eq/g (feces). Concentrations of parent in plasma were measured using LC‐MS/MS, with an LLOQ of 1.00 ng/mL.
as §2
PK analysis was performed using standard noncompartmental methods (Phoenix WinNonlin version 9.4; Pharsight, Certara, Princeton, New Jersey). […] In part 2, the following mass balance parameters were determined: cumulative amount of total radioactivity excreted in urine up to t, cumulative amount of total radioactivity excreted in feces up to t, amount of total radioactivity excreted in urine as a percentage of administered radioactivity, and amount of total radioactivity excreted in feces as a percentage of administered radioactivity. AUC was calculated by the linear up‐logarithmic down‐trapezoid rule, CL was calculated as dose/AUC, Vd(area) was calculated as CL/λz, and F was calculated as dose‐normalized ziritaxestat oral AUC/^14C‐ziritaxestat IV AUC.

[10] = tested on: CYP2C8; conditions: background data in introduction, no reference given, cited from earlier work
[11] = feces, single oral 600 mg 14C-ziritaxestat
[12] = human, ziritaxestat in plasma, oral 600 mg, n = 6, mean (SD)
[13] = mean (SD), listed as ziritaxestat

## CCc1nc2c(C)cc(N3CCN(CC(=O)O)CC3)cn2c1N(C)c1nc(-c2ccc(F)cc2)c(C#N)s1 [M533]
[1]; [11]
  Mean Feces Region of Interest: 25.3%

## CCc1nc2c(C)cc(N3CCN(CC(=O)NCC(=O)O)CC3)cn2c1N(C)c1nc(-c2ccc(F)cc2)c(C#N)s1 [M590]
[1]; [11]
  Mean Feces Region of Interest: 25.3%

## CCc1nc2c(C)cc(N3CCN(CC(=O)N4CC(O)C4)CC3)cn2c1N(C)c1nc(-c2ccc(F)cc2)c(C#N)s1 [Ziritaxestat]
[2]
  Enzyme primarily responsible for metabolism: primarily metabolized by CYP3A4
[2]; enzymes other than CYP3A4
  Contribution to metabolism from other phase 1 enzymes (maximum): ≤ 2.1%
[3]
  Effects on laboratory, vital signs, or ECG parameters: no clinically meaningful effects
  Intensity of TEAEs: mild
  Relation of TEAEs to treatment as assessed by the investigator: not considered to be related to the study drug; also recorded: not treatment related
[3]; healthy male subjects
  Serious AEs or AEs leading to discontinuation or interruption of dosing: no serious AEs or AEs leading to discontinuation or interruption of dosing
[3]; reported in 5 subjects
  Number of treatment-emergent AEs (TEAEs): 7
[4]; [12]
  AUC(0-inf): 40000 ng·h/mL
  AUC(0-t): 40000 ng·h/mL
  Cmax: 8400 ng/mL
  half-life: 7 h
[4]; human, ziritaxestat in plasma, oral 600 mg, n = 6, median (range)
  Tmax: 3.25 h
[4]; mean (SD)
  F AUCt (absolute bioavailability): 54.4 (5.2) %
  F AUC∞ (absolute bioavailability): 51.1 (4.8) %
[4]; [13]
  F AUCt (absolute bioavailability): 54%
  F AUC∞ (absolute bioavailability): 51%
[4]; ziritaxestat in plasma, oral 600 mg, n = 6, mean (SD)
  CL/F: 16.3 (4.6) L/h
[5]
  IC50: 3700 nM
[6]; Fg = F/Fa/Fh
  fg (fraction of drug surviving gut metabolism): 69%
[6]; Fh = 1 - Eh, Eh = ClIV/Qh, Qh 1450 mL/min
  fh (fraction of drug surviving hepatic elimination): 91%
[6]; human, in vivo
  Hepatic extraction ratio (first-pass loss): 9%
  frem (fraction of drug remaining to be eliminated): 14%
[7]
  CYP1A2 messenger RNA expression (induction potential): Increases in messenger RNA expression
[8]
  CYP3A4 messenger RNA expression (induction potential): Increases in messenger RNA expression
[9]; human, n = 5, mean (SD)
  AUC(0-inf): 50500 ng·h/mL
  half-life: 10.6 h
[9]; human, n = 6, mean (SD)
  AUC(0-t): 49100 ng·h/mL
  Cmax: 10700 ng/mL
[9]; human, n = 6, mean (SD), read-out: AUC24
  AUC: 47900 ng·h/mL
[9]; human, n = 6, median (range)
  Tmax: 1.75 h
[9]; n = 5, mean (SD)
  CL/F: 13.2 (4.6) [n = 5] ^c L/h
[10]; CYP2C8-mediated metabolism, preincubation with ziritaxestat in the absence and presence of NADP, time-dependent inhibition
  half maximal inhibitory concentration fold shift: 2.49
[10]; human liver microsomes and probe substrates, weak inhibition, read-out: half maximal inhibitory concentration
  IC50: 2100 nM
[1]; feces, oral 600 mg 14C-ziritaxestat
  Parent as share of total radioactivity (drug-related material) recovered in feces: 17.6%
[1]; [11]
  Mean Feces Region of Interest: 17.6%
[1]; plasma, metabolite profile / mass spectrometry analysis, oral 600 mg 14C-ziritaxestat
  Share of circulating radioactivity in plasma: 76%
[1]; plasma, single oral 600 mg 14C-ziritaxestat
  Mean Plasma Region of Interest: 76.2
